Data: US8481525B2, “Kinase inhibitors and method of treating cancer with same” (University of Health Network, priority 2009, dated 2013)

How the values were obtained:
Src = Src (Homo sapiens, UniProt P12931); experiment: CEREP HTRF kinase selectivity assay; format: biochemical
Experimental: (§1) The inhibitory activity of selected compounds of the invention was evaluated against a panel of 45 different kinase enzymes by CEREP, France. The assays were performed using standard HTRF assay methods as documented by CEREP against the human orthologues of Ab1 kinase, Akt1/PKBa, AMPKa, BMX kinase (Etk), Brk, CaMK2a, CaMK4, CDC2/CDK1 (cycB), CHK1, CHK2, c-Met kinase, CSK, EphB4 kinase, ERKI, ERK2 (P42mapk), FGFR2 kinase, FGFR4 kinase, FLT-1 kinase (VEGFR1), FLT-3 kinase, Fyn kinase, 1GF1R kinase, IRK (InsR), JNK 2, KDR kinase (VEGFR2), Lck kinase, Lyn kinase, MAPKAPK2, MEK1/MAP2K1, p38a kinase, p38d kinase, p38 g kinase, PDGFRb kinase, PDKI, PKA, PKCa, PKCb1, PKCb2, PKCg, Ret kinase, ROCK2, RSK2, Src kinase, Syk, and TRKA (Table 3). The % Inhibition was determined by the formula; % Inhibition=100×(1−(experimental value−background value)/(high activity control−background value)).

CaMK4 = biological target: T1, CaMK4 (Homo sapiens, UniProt Q16566); experiment: CEREP HTRF kinase selectivity assay; format: biochemical; settings: CaMK4, 10 uM
T1 construct: CEREP
Experimental: as §1

PKCbeta 2 = PKCbeta 2 (Homo sapiens, UniProt P05771); experiment: CEREP HTRF kinase selectivity assay; format: biochemical; settings: PKCbeta 2, 10 uM
Chain of PKCbeta 2 (P05771 1-673 isoform P05771-2): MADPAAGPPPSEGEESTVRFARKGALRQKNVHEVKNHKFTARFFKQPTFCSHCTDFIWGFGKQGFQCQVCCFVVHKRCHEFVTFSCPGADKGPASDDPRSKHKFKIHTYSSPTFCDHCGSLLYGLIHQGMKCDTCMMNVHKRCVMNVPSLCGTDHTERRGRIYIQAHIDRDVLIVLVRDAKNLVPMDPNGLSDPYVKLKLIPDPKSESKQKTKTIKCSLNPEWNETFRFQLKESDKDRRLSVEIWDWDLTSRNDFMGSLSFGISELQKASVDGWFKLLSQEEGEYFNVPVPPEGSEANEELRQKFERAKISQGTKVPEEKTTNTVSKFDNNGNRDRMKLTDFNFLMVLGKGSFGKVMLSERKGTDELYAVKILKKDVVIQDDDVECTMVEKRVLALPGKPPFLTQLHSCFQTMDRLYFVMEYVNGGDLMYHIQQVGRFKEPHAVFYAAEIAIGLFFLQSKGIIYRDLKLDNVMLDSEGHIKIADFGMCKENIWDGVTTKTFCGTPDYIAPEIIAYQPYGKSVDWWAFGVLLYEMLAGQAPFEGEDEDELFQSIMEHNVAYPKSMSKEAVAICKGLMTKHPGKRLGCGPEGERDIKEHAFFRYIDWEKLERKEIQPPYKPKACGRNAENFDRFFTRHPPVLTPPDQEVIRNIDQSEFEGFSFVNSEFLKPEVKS
Experimental: as §1

ERK1 = biological target: T2, ERK1 (Homo sapiens, UniProt P27361); experiment: CEREP HTRF kinase selectivity assay; format: biochemical; settings: ERK1, 10 uM
T2 construct: CEREP
Experimental: as §1

TRKA = biological target: T3, TRKA (Homo sapiens, UniProt P04629); experiment: CEREP HTRF kinase selectivity assay; format: biochemical
T3 construct: CEREP, France (contract panel)
Experimental: as §1

CHK2 = biological target: T4, CHK2 (Homo sapiens, UniProt O96017); experiment: CEREP HTRF kinase selectivity assay; format: biochemical; settings: CHK2, 10 uM
T4 construct: CEREP
Experimental: as §1

RSK2 = RSK2 (Homo sapiens, UniProt P51812); experiment: CEREP HTRF kinase selectivity assay; format: biochemical; settings: RSK2, 10 uM
Experimental: as §1

PKCgamma = PKCgamma (Homo sapiens, UniProt P05129); experiment: CEREP HTRF kinase selectivity assay; format: biochemical
Experimental: as §1

c-Met = biological target: T5, c-Met (Homo sapiens, UniProt P08581); experiment: CEREP HTRF kinase selectivity assay; format: biochemical
T5 construct: CEREP
Experimental: as §1

MAPKAPK2 = MAPKAPK2 (Homo sapiens, UniProt P49137); experiment: CEREP HTRF kinase selectivity assay; format: biochemical; settings: MAPKAPK2, 10 uM
Experimental: as §1

IGF1R = IGF1R (Homo sapiens, UniProt P08069); experiment: CEREP HTRF kinase selectivity assay; format: biochemical
Experimental: as §1

ERK (P42mapk) = biological target: T6, ERK (P42mapk) (Homo sapiens, UniProt P28482); experiment: CEREP HTRF kinase selectivity assay; format: biochemical
T6 construct: CEREP
Experimental: as §1

BMX (Etk) = biological target: T7, BMX (Etk) (Homo sapiens, UniProt P51813); experiment: CEREP HTRF kinase selectivity assay; format: biochemical
T7 construct: CEREP
Experimental: as §1

p38alpha = p38alpha (Homo sapiens, UniProt Q16539); experiment: CEREP HTRF kinase selectivity assay; format: biochemical
Chain of p38alpha (Q16539 whole entry): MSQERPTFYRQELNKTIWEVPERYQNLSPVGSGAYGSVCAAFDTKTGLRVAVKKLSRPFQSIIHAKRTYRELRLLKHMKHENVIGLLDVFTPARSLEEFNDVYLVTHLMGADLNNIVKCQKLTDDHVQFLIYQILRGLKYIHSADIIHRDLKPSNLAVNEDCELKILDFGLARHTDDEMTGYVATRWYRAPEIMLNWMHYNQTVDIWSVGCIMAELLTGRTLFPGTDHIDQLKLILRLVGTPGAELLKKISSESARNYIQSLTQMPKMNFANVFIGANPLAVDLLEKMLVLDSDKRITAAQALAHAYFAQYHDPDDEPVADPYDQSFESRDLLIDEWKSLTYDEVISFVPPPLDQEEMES
Experimental: as §1

Lck = Lck (Homo sapiens, UniProt P06239); experiment: CEREP HTRF kinase selectivity assay; format: biochemical
Experimental: as §1

FGFR4 = biological target: T8, FGFR4 (Homo sapiens, UniProt P22455); experiment: CEREP HTRF kinase selectivity assay; format: biochemical; settings: FGFR4, 10 uM
T8 construct: CEREP
Experimental: as §1

Brk = biological target: T9, Brk (Homo sapiens, UniProt Q13882); experiment: CEREP HTRF kinase selectivity assay; format: biochemical
T9 construct: CEREP
Experimental: as §1

CDC2/CDK1 (cycB) = biological target: T10, CDC2/CDK1 (cycB) (Homo sapiens, UniProt P06493); experiment: CEREP HTRF kinase selectivity assay; format: biochemical; settings: CDC2/CDK1, 10 uM
T10 construct: CEREP
Experimental: as §1

PKCalpha = PKCalpha (Homo sapiens, UniProt P17252); experiment: CEREP HTRF kinase selectivity assay; format: biochemical
Experimental: as §1

Akt1/PKBalpha = biological target: T11, Akt1/PKBalpha (Homo sapiens, UniProt P31749); experiment: CEREP HTRF kinase selectivity assay; format: biochemical
T11 construct: CEREP
Experimental: as §1

MEK1/MAP2K1 = MEK1/MAP2K1 (Homo sapiens, UniProt Q02750); experiment: CEREP HTRF kinase selectivity assay; format: biochemical; settings: MEK1/MAP2K1, 10 uM
Chain of MEK1/MAP2K1 (Q02750 whole entry): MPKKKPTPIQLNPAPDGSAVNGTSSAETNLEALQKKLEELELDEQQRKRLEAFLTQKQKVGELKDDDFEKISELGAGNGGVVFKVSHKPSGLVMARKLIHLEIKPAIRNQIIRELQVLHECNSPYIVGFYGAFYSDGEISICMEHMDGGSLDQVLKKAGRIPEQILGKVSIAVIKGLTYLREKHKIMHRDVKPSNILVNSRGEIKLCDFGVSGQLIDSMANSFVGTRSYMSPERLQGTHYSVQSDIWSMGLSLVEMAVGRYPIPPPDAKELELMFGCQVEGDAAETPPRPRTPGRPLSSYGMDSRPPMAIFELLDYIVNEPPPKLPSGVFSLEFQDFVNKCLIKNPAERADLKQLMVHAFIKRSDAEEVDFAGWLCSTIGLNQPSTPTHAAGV
Experimental: as §1

IRK (InsR) = IRK (InsR) (Homo sapiens, UniProt P06213); experiment: CEREP HTRF kinase selectivity assay; format: biochemical
Experimental: as §1

CHK1 = biological target: T12, CHK1 (Homo sapiens, UniProt O14757); experiment: CEREP HTRF kinase selectivity assay; format: biochemical; settings: CHK1, 10 uM
T12 construct: CEREP
Experimental: as §1

Fyn = Fyn (Homo sapiens, UniProt P06241); experiment: CEREP HTRF kinase selectivity assay; format: biochemical
Experimental: as §1

PKCbeta 1 = PKCbeta 1 (Homo sapiens, UniProt P05771); experiment: CEREP HTRF kinase selectivity assay; format: biochemical; settings: PKCbeta 1, 10 uM
Chain of PKCbeta 1 (P05771 whole entry): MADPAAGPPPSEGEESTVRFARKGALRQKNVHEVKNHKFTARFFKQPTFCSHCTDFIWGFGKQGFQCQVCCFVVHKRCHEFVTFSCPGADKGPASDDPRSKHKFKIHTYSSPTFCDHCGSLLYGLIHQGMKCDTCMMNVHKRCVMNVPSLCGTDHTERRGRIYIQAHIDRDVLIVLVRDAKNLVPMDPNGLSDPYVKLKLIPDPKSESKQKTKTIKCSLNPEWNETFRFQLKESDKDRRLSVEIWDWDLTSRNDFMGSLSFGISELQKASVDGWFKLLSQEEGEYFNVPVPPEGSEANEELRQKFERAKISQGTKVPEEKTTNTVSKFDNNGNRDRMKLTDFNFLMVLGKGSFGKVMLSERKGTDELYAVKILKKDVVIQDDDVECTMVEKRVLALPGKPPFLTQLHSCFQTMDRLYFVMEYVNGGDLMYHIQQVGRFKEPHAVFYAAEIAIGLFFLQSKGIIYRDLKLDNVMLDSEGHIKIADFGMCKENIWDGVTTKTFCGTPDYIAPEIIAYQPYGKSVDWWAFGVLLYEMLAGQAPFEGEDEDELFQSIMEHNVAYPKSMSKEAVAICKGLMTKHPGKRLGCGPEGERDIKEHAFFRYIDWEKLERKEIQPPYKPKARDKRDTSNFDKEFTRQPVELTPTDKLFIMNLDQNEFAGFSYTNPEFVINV
Experimental: as §1

p38delta = p38delta (Homo sapiens, UniProt O15264); experiment: CEREP HTRF kinase selectivity assay; format: biochemical
Chain of p38delta (O15264 whole entry): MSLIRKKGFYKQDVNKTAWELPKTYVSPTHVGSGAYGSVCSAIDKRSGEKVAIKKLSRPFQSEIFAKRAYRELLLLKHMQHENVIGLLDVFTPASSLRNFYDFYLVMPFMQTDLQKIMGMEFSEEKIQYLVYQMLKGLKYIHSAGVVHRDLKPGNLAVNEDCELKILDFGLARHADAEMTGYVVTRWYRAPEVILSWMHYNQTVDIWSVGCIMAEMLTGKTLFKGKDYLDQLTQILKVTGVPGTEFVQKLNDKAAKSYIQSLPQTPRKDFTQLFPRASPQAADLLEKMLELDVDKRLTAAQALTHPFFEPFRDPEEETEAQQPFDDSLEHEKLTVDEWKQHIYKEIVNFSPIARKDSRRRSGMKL
Experimental: as §1

Abl = biological target: T13, Abl (Homo sapiens, UniProt P00519); experiment: CEREP HTRF kinase selectivity assay; format: biochemical
T13 construct: CEREP
Experimental: as §1

JNK 2 = JNK 2 (Homo sapiens, UniProt P45984); experiment: CEREP HTRF kinase selectivity assay; format: biochemical; settings: JNK 2, 10 uM
Experimental: as §1

EphB4 = biological target: T14, EphB4 (Homo sapiens, UniProt P54760); experiment: CEREP HTRF kinase selectivity assay; format: biochemical; settings: EphB4, 10 uM
T14 construct: CEREP
T14 sequence (P54760 16-987): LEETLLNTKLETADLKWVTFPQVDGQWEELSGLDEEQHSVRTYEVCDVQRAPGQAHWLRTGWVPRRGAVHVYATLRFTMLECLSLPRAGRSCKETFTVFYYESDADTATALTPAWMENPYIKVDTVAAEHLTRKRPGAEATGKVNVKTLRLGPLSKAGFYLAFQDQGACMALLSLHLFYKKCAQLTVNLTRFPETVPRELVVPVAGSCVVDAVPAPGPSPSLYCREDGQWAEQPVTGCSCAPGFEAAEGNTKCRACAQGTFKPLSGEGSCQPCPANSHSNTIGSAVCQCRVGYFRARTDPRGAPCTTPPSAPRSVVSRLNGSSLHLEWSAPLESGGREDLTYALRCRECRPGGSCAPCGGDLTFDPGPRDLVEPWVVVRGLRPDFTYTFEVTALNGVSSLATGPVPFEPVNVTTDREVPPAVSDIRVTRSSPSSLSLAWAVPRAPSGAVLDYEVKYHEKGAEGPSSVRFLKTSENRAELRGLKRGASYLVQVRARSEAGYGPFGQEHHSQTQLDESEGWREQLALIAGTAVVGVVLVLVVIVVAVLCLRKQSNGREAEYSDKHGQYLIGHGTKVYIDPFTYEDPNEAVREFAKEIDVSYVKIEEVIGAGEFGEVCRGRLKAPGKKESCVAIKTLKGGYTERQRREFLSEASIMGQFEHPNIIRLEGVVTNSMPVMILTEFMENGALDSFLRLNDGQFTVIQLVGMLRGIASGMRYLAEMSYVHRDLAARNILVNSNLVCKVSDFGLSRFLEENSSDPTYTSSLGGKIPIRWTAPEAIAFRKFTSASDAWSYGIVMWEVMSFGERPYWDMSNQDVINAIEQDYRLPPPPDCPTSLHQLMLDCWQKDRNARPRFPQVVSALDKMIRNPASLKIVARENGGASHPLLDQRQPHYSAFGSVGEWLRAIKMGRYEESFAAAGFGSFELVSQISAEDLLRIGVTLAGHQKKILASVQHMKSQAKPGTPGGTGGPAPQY
Experimental: as §1

p38gamma = p38gamma (Homo sapiens, UniProt P53778); experiment: CEREP HTRF kinase selectivity assay; format: biochemical
Chain of p38gamma (P53778 whole entry): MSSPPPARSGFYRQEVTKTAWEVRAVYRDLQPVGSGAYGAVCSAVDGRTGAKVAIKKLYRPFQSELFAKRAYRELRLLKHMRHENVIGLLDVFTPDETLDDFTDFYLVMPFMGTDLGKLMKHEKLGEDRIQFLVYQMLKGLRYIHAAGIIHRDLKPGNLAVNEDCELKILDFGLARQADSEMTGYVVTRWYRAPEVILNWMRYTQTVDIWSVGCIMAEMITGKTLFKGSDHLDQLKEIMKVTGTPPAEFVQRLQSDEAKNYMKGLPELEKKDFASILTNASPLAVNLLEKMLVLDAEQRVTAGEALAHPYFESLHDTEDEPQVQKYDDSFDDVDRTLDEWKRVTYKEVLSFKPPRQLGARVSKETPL
Experimental: as §1

PDK1 = PDK1 (Homo sapiens, UniProt O15530); experiment: CEREP HTRF kinase selectivity assay; format: biochemical; settings: PDK1, 10 uM
Experimental: as §1

Lyn = Lyn (Homo sapiens, UniProt P07948); experiment: CEREP HTRF kinase selectivity assay; format: biochemical
Chain of Lyn (P07948 whole entry): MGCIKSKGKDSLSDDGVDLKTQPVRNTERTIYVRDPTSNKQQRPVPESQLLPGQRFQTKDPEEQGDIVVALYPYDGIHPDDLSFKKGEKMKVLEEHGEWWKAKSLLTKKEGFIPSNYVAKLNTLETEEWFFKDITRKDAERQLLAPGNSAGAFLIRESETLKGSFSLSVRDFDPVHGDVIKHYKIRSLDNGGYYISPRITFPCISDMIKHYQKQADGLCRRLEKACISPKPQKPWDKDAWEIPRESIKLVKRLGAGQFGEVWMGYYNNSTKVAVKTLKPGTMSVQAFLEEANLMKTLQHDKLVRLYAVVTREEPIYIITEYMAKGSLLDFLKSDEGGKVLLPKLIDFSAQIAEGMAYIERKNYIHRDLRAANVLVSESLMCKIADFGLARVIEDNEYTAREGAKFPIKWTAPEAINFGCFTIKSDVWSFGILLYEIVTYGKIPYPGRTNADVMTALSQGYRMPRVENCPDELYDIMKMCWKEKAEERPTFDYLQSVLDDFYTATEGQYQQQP
Experimental: as §1

CSK = biological target: T15, CSK (Homo sapiens, UniProt P41240); experiment: CEREP HTRF kinase selectivity assay; format: biochemical
T15 construct: CEREP
Experimental: as §1

ROCK2 = ROCK2 (Homo sapiens, UniProt O75116); experiment: CEREP HTRF kinase selectivity assay; format: biochemical; settings: ROCK2, 10 uM
Experimental: as §1

Ret = Ret (Homo sapiens, UniProt P07949); experiment: CEREP HTRF kinase selectivity assay; format: biochemical
Experimental: as §1

PDGFRbeta = PDGFRbeta (Homo sapiens, UniProt P09619); experiment: CEREP HTRF kinase selectivity assay; format: biochemical
Experimental: as §1

PKA = PKA (Homo sapiens, UniProt P17612); experiment: CEREP HTRF kinase selectivity assay; format: biochemical
Experimental: as §1

FLT-3 = FLT-3 (Homo sapiens, UniProt P36888); experiment: CEREP HTRF kinase selectivity assay; format: biochemical; settings: FLT-3, 10 uM
Experimental: (§2) The inhibitory activity of selected compounds of the invention was evaluated against a panel of 45 different kinase enzymes by CEREP, France. […] The % Inhibition was determined by the formula; % Inhibition=100×(1−(experimental value−background value)/(high activity control−background value)).

KDR (VEGFR2) = KDR (VEGFR2) (Homo sapiens, UniProt P35968); experiment: CEREP HTRF kinase selectivity assay; format: biochemical
Experimental: as §2

HUV-EC-C cells = experiment: In Vitro Angiogenesis Assay (tube formation); settings: HUV-EC-C cells on ECMatrix, 4 hr; FIGS. 1 and 2

O=C1Nc2ccccc2[C@@]12C[C@@H]2c1ccc2c(/C=C/c3ccncc3)n[nH]c2c1 (racemic) [Example A22, (1R*,2S*)-(E)-2-(3-(2-(pyridin-4-yl)vinyl)-1H-indazol-6-yl)spiro-[cyclo-propane-1,3′-indolin]-2′-one] gave an inhibition at 10 µM (Src) of 26%, an inhibition at 10 µM (CaMK4) of -8% and an inhibition at 10 µM (PKCbeta 2) of 11%. For the same compound, the inhibition at 10 µM (ERK1) was 8%, the inhibition at 10 µM (TRKA) was 100% and the inhibition at 10 µM (CHK2) was 4%. For the same compound, the inhibition at 10 µM (RSK2) was 48%, the inhibition at 10 µM (PKCgamma) was 8% and the inhibition at 10 µM (c-Met) was 97%. It also gave an inhibition at 10 µM (MAPKAPK2) of 4%, an inhibition at 10 µM (IGF1R) of 22% and an inhibition at 10 µM (ERK (P42mapk)) of 11%. For the same compound, the inhibition at 10 µM (BMX (Etk)) was 71%, the inhibition at 10 µM (p38alpha) was 32% and the inhibition at 10 µM (Lck) was 97%. It also gave an inhibition at 10 µM (FGFR4) of 56%, an inhibition at 10 µM (Brk) of 41% and an inhibition at 10 µM (CDC2/CDK1 (cycB)) of 93%. The inhibition at 10 µM (PKCalpha) was 7%, the inhibition at 10 µM (Akt1/PKBalpha) was -1% and the inhibition at 10 µM (MEK1/MAP2K1) was 12%. For the same compound, the inhibition at 10 µM (IRK (InsR)) was 21%, the inhibition at 10 µM (CHK1) was 37% and the inhibition at 10 µM (Fyn) was 87%. It also gave an inhibition at 10 µM (PKCbeta 1) of 0%, an inhibition at 10 µM (p38delta) of -22% and an inhibition at 10 µM (Abl) of 97%. The inhibition at 10 µM (JNK 2) was 32%, the inhibition at 10 µM (EphB4) was 99% and the inhibition at 10 µM (p38gamma) was -15%. It also gave an inhibition at 10 µM (PDK1) of 69%, an inhibition at 10 µM (Lyn) of 99% and an inhibition at 10 µM (CSK) of 99%. It also gave an inhibition at 10 µM (ROCK2) of 88%, an inhibition at 10 µM (Ret) of 99% and an inhibition at 10 µM (PDGFRbeta) of 88%. For the same compound, the inhibition at 10 µM (PKA) was -6%, the inhibition at 10 µM (FLT-3) was 100% and the inhibition at 10 µM (KDR (VEGFR2)) was 98%. The “anti-angiogenic effect (tube formation, % of control tube count)” value (HUV-EC-C cells) was “anti-agiogenic effects at submicromolar concentrations”.
